{"source": "patent US20230039395A1", "about": "“LSD AND […] EQUIVALENCE DETERMINATION” (Universitätsspital Basel, priority 2021, published 2023)", "key": {"[1]": {"test": "5 Dimensions of Altered States of Consciousness Scale (5D-ASC) in healthy subjects"}, "[2]": {"test": "Spontaneously reported adverse events after treatment", "format": "in vivo, human", "conditions": "for type and amount of adverse events, psilocybin versus LSD: in vivo; for flash back episodes: within 72 hours after administration, nine episodes in five subjects", "procedure": "(§1) The subjects then underwent baseline measurements.\nIn addition to the adverse effects systematically assessed with the list of complaints, there were spontaneously reported adverse events after LSD or psilocybin administration as assessed in the evening of the treatment day or within 48 hours after treatment. These adverse after effects after psilocybin or LSD administration included headaches (four subjects after psilocybin and three after LSD), migraine attack (one subject after LSD), nosebleeds (one subject after psilocybin), low mood (two subjects after psilocybin and two subjects after LSD), nausea (two subjects after psilocybin and one subject after LSD), nightmares (one subject after psilocybin), restlessness (one subject after psilocybin and one subject after LSD), vivid dreams (one subject after LSD), insomnia (one subject after psilocybin), involuntary movement in lower extremities (one subject after LSD). Nine flash back episodes occurred in five subjects (one to 20 times within 72 hours after substance administration), five episodes occurred after LSD administration, four episodes occurred after psilocybin administration."}, "[3]": {"test": "Plasma exposure of LSD and iso-LSD after LSD capsules in previous studies", "conditions": "similar bioavailability assumed"}, "[4]": {"test": "Adjective Mood Rating Scale (AMRS) in healthy subjects"}, "[5]": {"conditions": "after the 200 μg dose as two 100 μg LSD capsules (Steuer et al., 2017); cited from earlier work"}, "[6]": {"conditions": "four unused old LSD capsules, years after study completion; cited from earlier work"}, "[7]": {"test": "Endocrine effects: plasma cortisol and prolactin (PRL)", "format": "in vivo, human", "conditions": "2.5 hours after administration", "procedure": "as §1\nEndocrine effects: Plasma concentrations of cortisol, prolactin (PRL), oxytocin, and brain-derived neurotrophic factor (BDNF) were determined as described elsewhere (Holze et al., 2021; Schmid et al., 2015). Cortisol and PRL were measured before and 2.5 hours after drug administration. BDNF was measured before and three times after drug administration.\nThe criterion for significance was p<0.05."}, "[8]": {"test": "Autonomic effects (blood pressure, heart rate, body temperature, pupil) in healthy subjects", "conditions": "for rate pressure product: high dose of both substances"}, "D1-3 receptors": {"tested_on": "D1-3 receptors", "conditions": "cited from earlier work"}, "[9]": {"test": "Mystical Experience Questionnaire (MEQ43 and MEQ30) in healthy subjects", "conditions": "LSD 200 μg; MEQ43 p=0.002, MEQ30 p=0.015"}, "[10]": {"conditions": "75 μg LSD base in saline i.v., previous studies; cited from earlier work"}, "[11]": {"test": "Acute adverse effects, 66-item List of Complaints", "conditions": "for headache, number of subjects reporting: 0-12 hours, high dose; for headache, number of subjects reporting / balance disturbed, number of subjects / dry mouth, number of subjects reporting: 28 subjects"}, "[12]": {"biological_target": "serotonin (5-HT)2A receptors (Homo sapiens, UniProt P28223)", "sequence (P28223 whole entry)": "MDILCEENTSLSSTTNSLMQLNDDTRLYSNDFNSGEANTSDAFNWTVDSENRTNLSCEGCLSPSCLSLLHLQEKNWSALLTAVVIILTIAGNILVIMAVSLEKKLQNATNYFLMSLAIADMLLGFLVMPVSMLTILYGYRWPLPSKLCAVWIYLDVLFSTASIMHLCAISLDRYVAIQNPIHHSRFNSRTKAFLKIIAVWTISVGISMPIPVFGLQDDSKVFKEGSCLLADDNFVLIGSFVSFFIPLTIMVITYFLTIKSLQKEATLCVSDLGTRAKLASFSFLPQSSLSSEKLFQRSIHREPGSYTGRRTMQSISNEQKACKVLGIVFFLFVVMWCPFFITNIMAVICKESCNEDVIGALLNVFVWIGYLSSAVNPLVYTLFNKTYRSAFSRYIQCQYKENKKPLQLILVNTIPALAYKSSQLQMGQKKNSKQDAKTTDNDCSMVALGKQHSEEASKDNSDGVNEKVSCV", "conditions": "cited from earlier work"}, "[13]": {"test": "Subjective drug effects on visual analog scales (VAS) in healthy subjects"}, "[14]": {"test": "Dose equivalence of LSD and psilocybin extrapolated from acute effects", "format": "in vivo, human", "conditions": "LSD 200 μg"}, "5-HT transporter (SERT)": {"biological_target": "5-HT transporter (SERT) (Homo sapiens, UniProt P31645)", "sequence (P31645 whole entry, species assumed)": "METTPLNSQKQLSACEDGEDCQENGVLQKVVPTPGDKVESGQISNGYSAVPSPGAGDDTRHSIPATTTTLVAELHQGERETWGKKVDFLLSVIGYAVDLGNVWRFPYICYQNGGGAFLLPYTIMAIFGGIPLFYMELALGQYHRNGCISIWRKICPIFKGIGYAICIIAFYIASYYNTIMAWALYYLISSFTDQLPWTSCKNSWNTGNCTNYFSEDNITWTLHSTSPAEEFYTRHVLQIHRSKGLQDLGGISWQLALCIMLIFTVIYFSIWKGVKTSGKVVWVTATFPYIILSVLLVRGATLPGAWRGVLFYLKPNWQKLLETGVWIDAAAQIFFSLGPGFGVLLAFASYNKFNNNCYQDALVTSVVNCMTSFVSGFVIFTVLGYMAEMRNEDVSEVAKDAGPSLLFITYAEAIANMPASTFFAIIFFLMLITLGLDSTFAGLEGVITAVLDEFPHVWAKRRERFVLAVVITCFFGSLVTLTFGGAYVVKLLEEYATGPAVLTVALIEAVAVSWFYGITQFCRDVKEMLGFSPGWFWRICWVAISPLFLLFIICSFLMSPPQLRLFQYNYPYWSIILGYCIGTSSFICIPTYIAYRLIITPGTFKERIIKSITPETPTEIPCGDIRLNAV", "conditions": "cited from earlier work"}, "[15]": {"conditions": "evening of treatment day or within 48 hours"}}, "data": [{"smiles": "CCN(CC)C(=O)[C@@H]1C=C2c3cccc4[nH]cc(c34)C[C@H]2N(C)C1", "note": "[LSD, lysergic acid diethylamide]", "values": [{"measurement": "alterations of the mind in the 5D-ASC scale", "setting": "[1]; human, in vivo", "value": "marked alterations of the mind"}, {"measurement": "5D-ASC AED (anxious ego dissolution), 200 μg versus 100 μg LSD", "setting": "[1]; p=0.02", "value": "greater"}, {"measurement": "5D-ASC anxiety, 200 μg versus 100 μg LSD", "setting": "[1]; p=0.03", "value": "greater"}, {"measurement": "5D-ASC impairments of control and cognition, 200 μg versus 100 μg LSD", "setting": "[1]; p=0.04", "value": "greater"}, {"measurement": "headaches, spontaneously reported", "setting": "[2]; [15]", "value": "three"}, {"measurement": "involuntary movement in lower extremities, spontaneously reported", "setting": "[2]; [15]", "value": "one"}, {"measurement": "low mood, spontaneously reported", "setting": "[2]; [15]", "value": "two"}, {"measurement": "migraine attack, spontaneously reported", "setting": "[2]; [15]", "value": "one"}, {"measurement": "nausea, spontaneously reported", "setting": "[2]; [15]", "value": "one"}, {"measurement": "restlessness, spontaneously reported", "setting": "[2]; [15]", "value": "one"}, {"measurement": "vivid dreams, spontaneously reported", "setting": "[2]; [15]", "value": "one"}, {"measurement": "type and amount of adverse events, psilocybin versus LSD", "setting": "[2]", "value": "comparable"}, {"measurement": "flash back episodes", "setting": "[2]", "value": "five"}, {"measurement": "AUC∞ as percent of the value expected from confirmed 96 μg LSD doses", "setting": "[3]; 100 μg dose", "value": 61, "unit": "%"}, {"measurement": "AUC∞ as percent of the value expected from confirmed 96 μg LSD doses", "setting": "[3]; 200 μg dose", "value": 76, "unit": "%"}, {"measurement": "AMRS emotional excitation versus 15 mg or 30 mg psilocybin", "setting": "[4]; LSD 100 and 200 μg", "value": "greater"}, {"measurement": "AMRS extraversion ratings versus placebo", "setting": "[4]; all doses", "value": "decrease"}, {"measurement": "AMRS inactivation ratings versus placebo", "setting": "[4]; all doses", "value": "significantly and similarly increased"}, {"measurement": "AMRS introversion ratings versus placebo", "setting": "[4]; all doses", "value": "increased"}, {"measurement": "AMRS self-rated anxiety", "setting": "[4]; both doses of LSD (100 and 200 μg)", "value": "slightly but significantly increased"}, {"measurement": "plasma AUC24", "setting": "[5]", "value": 21, "unit": "ng·h/mL"}, {"measurement": "remaining amount of LSD in capsules", "setting": "[6]", "value": "22 ± 7", "unit": "µg"}, {"measurement": "PRL plasma concentrations", "setting": "[7]", "value": "significantly increased"}, {"measurement": "cortisol plasma concentrations", "setting": "[7]", "value": "significantly increased"}, {"measurement": "increase in heart rate versus psilocybin 30 mg", "setting": "[8]; LSD 200 μg, p=0.002", "value": "significantly more"}, {"measurement": "rate pressure product", "setting": "[8]", "value": "similarly increased"}, {"measurement": "action on D1-3 receptors", "setting": "D1-3 receptors", "value": "stimulates"}, {"measurement": "MEQ ineffability ratings versus 30 mg psilocybin", "setting": "[9]", "value": "significantly greater"}, {"measurement": "clinical response to 75 μg intravenous LSD versus oral 100 μg dose", "setting": "[10]", "value": "not significantly different"}, {"measurement": "headache, number of subjects reporting", "setting": "[11]", "value": 13, "unit": "subjects"}, {"measurement": "balance disturbed, number of subjects", "setting": "[11]", "value": 16, "unit": "subjects"}, {"measurement": "dry mouth, number of subjects reporting", "setting": "[11]", "value": 15, "unit": "subjects"}, {"measurement": "frequency of acute adverse effects, LSD versus psilocybin", "setting": "[11]; in vivo", "value": "equally frequent"}, {"measurement": "most frequent acute adverse effects", "setting": "[11]; in vivo", "value": "fatigue, headache, lack of concentration, lack of energy, dullness, feeling week, loss of appetite, dry mouth, and impaired balance"}, {"measurement": "total number of acute complaints, 100 versus 200 μg LSD", "setting": "[11]; in vivo", "value": "did not differ"}, {"measurement": "binding to 5-HT2A receptors", "setting": "[12]", "value": "bind"}, {"measurement": "dose-response curve of subjective effects", "setting": "[13]; 15-30 mg psilocybin range compared to 100-200 μg LSD range", "value": "plateau effect"}, {"measurement": "overall effects and positive drug effects, 200 μg versus 100 μg LSD", "setting": "[13]; LSD 100 and 200 μg oral", "value": "comparable positive drug effects"}, {"measurement": "bad drug effects, 200 μg versus 100 μg LSD", "setting": "[13]; human, in vivo", "value": "more"}, {"measurement": "ego dissolution (VAS), 200 μg versus 100 μg LSD", "setting": "[13]; p=0.014", "value": "more and greater"}, {"measurement": "anxiety (VAS), 200 μg versus 100 μg LSD", "setting": "[13]; p=0.054", "value": "more and near-significantly greater"}, {"measurement": "overall strength versus the 30 mg psilocybin dose", "setting": "[14]", "value": "overall stronger"}]}, {"smiles": "CN(C)CCc1c[nH]c2cccc(O)c12", "note": "[Psilocin, psilocin]", "values": [{"measurement": "action on the 5-HT transporter (SERT)", "setting": "5-HT transporter (SERT)", "value": "inhibits"}]}, {"smiles": "CCN(CC)C(=O)[C@H]1C=C2c3cccc4[nH]cc(c34)C[C@H]2N(C)C1", "note": "[iso-LSD]", "values": [{"measurement": "plasma AUC24", "setting": "[5]", "value": 9.2, "unit": "ng·h/mL"}]}, {"smiles": "CN(C)CCc1c[nH]c2cccc(OP(=O)(O)O)c12", "note": "[psilocybin]", "values": [{"measurement": "headaches, spontaneously reported", "setting": "[2]; [15]", "value": "four"}, {"measurement": "insomnia, spontaneously reported", "setting": "[2]; [15]", "value": "one"}, {"measurement": "low mood, spontaneously reported", "setting": "[2]; [15]", "value": "two"}, {"measurement": "nausea, spontaneously reported", "setting": "[2]; [15]", "value": "two"}, {"measurement": "nightmares, spontaneously reported", "setting": "[2]; [15]", "value": "one"}, {"measurement": "nosebleeds, spontaneously reported", "setting": "[2]; [15]", "value": "one"}, {"measurement": "restlessness, spontaneously reported", "setting": "[2]; [15]", "value": "one"}, {"measurement": "type and amount of adverse events, psilocybin versus LSD", "setting": "[2]", "value": "comparable"}, {"measurement": "flash back episodes", "setting": "[2]", "value": "four"}, {"measurement": "rate pressure product", "setting": "[8]", "value": "similarly increased"}, {"measurement": "increase in diastolic blood pressure versus LSD 200 μg", "setting": "[8]; psilocybin 30 mg, p<0.001", "value": "more"}, {"measurement": "increase in systolic blood pressure versus LSD 200 μg", "setting": "[8]; psilocybin 30 mg, p=0.04", "value": "more"}, {"measurement": "headache, number of subjects reporting", "setting": "[11]", "value": 18, "unit": "subjects"}, {"measurement": "balance disturbed, number of subjects", "setting": "[11]", "value": 16, "unit": "subjects"}, {"measurement": "dry mouth, number of subjects reporting", "setting": "[11]", "value": 9, "unit": "subjects"}, {"measurement": "frequency of acute adverse effects, LSD versus psilocybin", "setting": "[11]; in vivo", "value": "equally frequent"}, {"measurement": "most frequent acute adverse effects", "setting": "[11]; in vivo", "value": "fatigue, headache, lack of concentration, lack of energy, dullness, feeling week, loss of appetite, dry mouth, and impaired balance"}, {"measurement": "acute adverse effects versus LSD 100 μg", "setting": "[11]; psilocybin 15 mg, p<0.01", "value": "fewer"}, {"measurement": "acute adverse effects versus psilocybin 30 mg", "setting": "[11]; psilocybin 15 mg, p<0.1", "value": "trend toward fewer"}]}]}
